Measurements reported in patent US20230192617A1, “AZABICYCLIC(THIO)AMIDES AS FUNGICIDAL COMPOUNDS” (Bayer CropScience Aktiengesellschaft, priority 2020, published 2023).

Columns and labels:
Alternaria brassicae = experiment: In vivo preventive test on Alternaria brassicae (leaf spot on radish or cabbage); conditions: 500 ppm of active ingredient, preventive spray on radish or cabbage, evaluated 3 to 4 days after inoculation, read-out: efficacy
Summary of the method: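 Young radish or cabbage plants were sprayed with compound dissolved in DMSO/acetone/Tween 80 and diluted in water; controls received solvent only. Inoculation by spraying A. brassicae spore suspension 24 h later, then 3–4 days at 20 °C and 100% relative humidity.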

Botrytis cinerea [1] = experiment: In vivo preventive test on Botrytis cinerea (grey mould); conditions: 500 ppm of active ingredient, preventive spray on gherkin or cabbage, evaluated 4 to 5 days after inoculation, read-out: efficacy
Summary of the method: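 Young gherkin or cabbage plants were sprayed with compound in DMSO/acetone/Tween 80 diluted in water, then inoculated 24 hours later with a B. cinerea spore suspension. Incubation lasted 4 to 5 days: gherkin at 17° C., 90% relative humidity; cabbage at 20° C., 100% relative humidity.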

Pyrenophora teres = experiment: In vivo preventive test on Pyrenophora teres (net blotch on barley); conditions: 240 h, 500 ppm of active ingredient, preventive spray on barley, evaluated 10 days after inoculation, read-out: efficacy
Protocol: B-3. In Vivo Preventive Test on Pyrenophora Teres (Net Blotch on Barley) [table] The active ingredients were made soluble and homogenized in a mixture of Dimethyl sulfoxide/Acetone/Tween® 80 and then diluted in water to the desired concentration. The young plants of barley were treated by spraying the active ingredient prepared as described above. Control plants were treated only with an aqueous solution of Acetone/Dimethyl sulfoxide/Tween® 80. After 24 hours, the plants were contaminated by spraying the leaves with an aqueous suspension of Pyrenophora teres spores. The contaminated barley plants were incubated for 48 hours at 20° C. and at 100% relative humidity and then for 8 days at 20° C. and at 70-80% relative humidity.

Sphaerotheca fuliginea = experiment: In vivo preventive test on Sphaerotheca fuliginea (powdery mildew on cucurbits); conditions: Podosphaera fuliginea, 192 h; 500 ppm of active ingredient; preventive spray on gherkin; evaluated 8 days after inoculation; read-out: efficacy
Summary of the method: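 Young gherkin plants were sprayed with compound in DMSO/acetone/Tween 80 diluted in water. They were inoculated 24 h later with a spore suspension of Sphaerotheca fuliginea. Plants were then kept for 8 days at 20 °C and 70–80% relative humidity.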

Alternaria alternata = Alternaria alternata in vitro cell test; assay type: cell-based; conditions: 120 h, 20 ppm of active ingredient, liquid culture, 5 days incubation, spectrometric measurement of mycelium growth, read-out: efficacy (inhibition of fungal growth)
Summary of the method: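 Liquid culture assay in which A. alternata spores in medium received DMSO-solubilized compound (final DMSO ≤1%). After 5 days, mycelium growth was measured spectrometrically. Inhibition was calculated against fungicide-free control wells.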

[2] = tested on: Colletotrichum lindemuthianum; experiment: B-8. Colletotrichum lindemuthianum in vitro cell test; assay type: cell-based; conditions: 144 h, 20 ppm of active ingredient, 6 days incubation, liquid culture, absorbance, read-out: efficacy (inhibition of fungal growth)
Summary of the method: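 Spore suspension of C. lindemuthianum in liquid medium exposed to DMSO-solubilized compounds (final DMSO ≤1%) for 6 days. Mycelial growth read by absorbance, with inhibition calculated relative to compound-free control wells.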

Botrytis cinerea [3] = experiment: B-11. Botrytis cinerea in vitro cell test; assay type: cell-based; conditions: 144 h, 20 ppm of active ingredient, 6 days incubation, liquid culture, absorbance, read-out: efficacy (inhibition of fungal growth)
Summary of the method: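 B. cinerea spores were grown in liquid culture with compound (DMSO ≤1% final). Mycelium growth was measured spectrometrically after 6 days, with inhibition taken as absorbance relative to untreated control wells.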

[4] = Measurement of Log P values by HPLC on reversed phase columns (EEC directive 79/831 Annex V.A8); assay type: physicochemical; conditions: reversed phase HPLC column, method [a]: LC-UV, acidic range, 0.1% formic acid in water and acetonitrile as eluent
Summary of the method: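 Reversed-phase HPLC with UV detection per EEC 79/831 Annex V.A8, linear 10–95% acetonitrile gradient. Aqueous eluent: 0.1% formic acid (acidic), 0.001 M ammonium acetate (neutral), or 0.1% phosphoric acid (acidic); multiple values in one method joined by "+".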

[5] = tested on: Colletotrichum lindemuthianum; experiment: In vivo preventive test on Colletotrichum lindemuthianum (leaf spot on bean); conditions: 168 h, 500 ppm of active ingredient, preventive spray on bean, evaluated 7 days after inoculation, read-out: efficacy
Protocol: B-5. In Vivo Preventive Test on Colletotrichum lindemuthianum (Leaf Spot on Bean) [table] The active ingredients were made soluble and homogenized in a mixture of Dimethyl sulfoxide/Acetone/Tween® 80 and then diluted in water to the desired concentration. The young plants of bean were treated by spraying the active ingredient prepared as described above. Control plants were treated only with an aqueous solution of Acetone/Dimethyl sulfoxide/Tween® 80. After 24 hours, the plants were contaminated by spraying the leaves with an aqueous suspension of Colletotrichum lindemuthianum spores. The contaminated bean plants were incubated for 24 hours at 20° C. and at 100% relative humidity and then for 6 days at 20° C. and at 90% relative humidity.

| Structure (SMILES) | chromatographic logP [4] | pest or weed control at 500 ppm (Alternaria brassicae) [%] | pest or weed control at 500 ppm (Botrytis cinerea [1]) [%] | pest or weed control at 500 ppm (Pyrenophora teres) [%] | pest or weed control at 500 ppm (Sphaerotheca fuliginea) [%] | inhibition at 20 ppm (Alternaria alternata) [%] | inhibition at 20 ppm [2] [%] | inhibition at 20 ppm (Botrytis cinerea [3]) [%] | pest or weed control at 500 ppm [5] [%] |
| --- | --- | --- | --- | --- | --- | --- | --- | --- | --- |
| Cc1ccc(CCNC(=O)c2c(Oc3cccc(C(F)(F)F)c3)nnc3ccccc23)c(C)c1 [I-230] | – | 90 to 100 | 90 to 100 | 80 to 89 | 90 to 100 | 90 to 100 | 90 to 100 | 90 to 100 | – |
| Cc1ccc(C(F)(F)CNC(=O)c2c(Oc3cccc(C(F)F)c3)nnc3ccccc23)c(C)c1 [I-033] | 3.92 | 90 to 100 | 90 to 100 | 70 to 79 | 90 to 100 | 90 to 100 | 90 to 100 | – | 80 to 89 |
| Cc1ccc([C@@H](F)CNC(=O)c2c(Oc3cccc(Cl)c3)nnc3ccccc23)cc1C (racemic) [I-048] | 4.05 | 90 to 100 | 90 to 100 | 90 to 100 | – | 90 to 100 | 90 to 100 | 90 to 100 | 90 to 100 |
| Cc1ccc(CCNC(=O)c2c(Oc3cccc(C(F)(F)F)c3)nnc3c2OCCO3)c(C)c1 [I-104] | 3.28 | 90 to 100 | 90 to 100 | 80 to 89 | 90 to 100 | 90 to 100 | 80 to 89 | – | 90 to 100 |
| Cc1cccc(Oc2nnc3ccccc3c2C(=O)NCC(F)(F)c2ccc(Br)cc2Cl)c1 [I-015] | 4.37 | 90 to 100 | 90 to 100 | 70 to 79 | 90 to 100 | 90 to 100 | 90 to 100 | – | – |

Now from value to compound, other results behind:

| chromatographic logP [4] | Structure (SMILES) | pest or weed control at 500 ppm (Alternaria brassicae) [%] | pest or weed control at 500 ppm (Botrytis cinerea [1]) [%] | pest or weed control at 500 ppm (Pyrenophora teres) [%] | pest or weed control at 500 ppm (Sphaerotheca fuliginea) [%] | inhibition at 20 ppm (Alternaria alternata) [%] | inhibition at 20 ppm [2] [%] | inhibition at 20 ppm (Botrytis cinerea [3]) [%] | pest or weed control at 500 ppm [5] [%] |
| --- | --- | --- | --- | --- | --- | --- | --- | --- | --- |
| 3.74 | Cc1ccc(C(F)(F)CNC(=O)c2c(Oc3cccc(C4CC4)c3F)nnc3c2N[C@@H](O)CC3)c(C)c1 (racemic) [I-116] | 90 to 100 | 90 to 100 | 80 to 89 | 90 to 100 | 90 to 100 | 90 to 100 | – | 90 to 100 |
| 3.77 | O=C(NC[C@H](F)c1ccc(Cl)cc1Cl)c1c(Oc2cccc(C(F)(F)F)c2)cnc2c1OCCO2 (racemic) [I-108] | 90 to 100 | 90 to 100 | 90 to 100 | 90 to 100 | 90 to 100 | 90 to 100 | – | 90 to 100 |
| 3.6 | Cc1ccc(CCNC(=O)c2c(Oc3cccc(C(F)(F)F)c3)cnc3c2OCCO3)c(C)c1 [I-110] | 90 to 100 | 90 to 100 | 90 to 100 | 90 to 100 | 90 to 100 | 90 to 100 | – | 90 to 100 |
